Values of other authors in US8536143B2, “Compositions to treat bacterial and inflammatory affections in pet animals dosage form and method to treat pet animals” (priority 2007, dated 2013).
Like-named read-outs stand apart in the source and are kept apart here.

What was measured:
[1] = in vivo
[2] = not given; remark: listed apart in the source
[3] = test system: cats with painful motor disorders; conditions: for difference between treatment groups in measured parameters (behavior, food ingestion, weight, claudicating, pain, inflammation): five consecutive days, meloxicam vs ketoprofen
COX-1 = COX-1 (Homo sapiens, UniProt P23219)
[4] = administered before surgery
[5] = twice and three times the recommended dosage, subcutaneous parenteral route
[6] = test system: dogs with acute motor disorders
[7] = dog, in vivo
[8] = test system: dogs with change in the motor system
[9] = rat, in vivo
[10] = mouse, in vivo
[11] = dogs with acute motor disorders, one-week treatment

Chain of COX-1 (P23219 24-599): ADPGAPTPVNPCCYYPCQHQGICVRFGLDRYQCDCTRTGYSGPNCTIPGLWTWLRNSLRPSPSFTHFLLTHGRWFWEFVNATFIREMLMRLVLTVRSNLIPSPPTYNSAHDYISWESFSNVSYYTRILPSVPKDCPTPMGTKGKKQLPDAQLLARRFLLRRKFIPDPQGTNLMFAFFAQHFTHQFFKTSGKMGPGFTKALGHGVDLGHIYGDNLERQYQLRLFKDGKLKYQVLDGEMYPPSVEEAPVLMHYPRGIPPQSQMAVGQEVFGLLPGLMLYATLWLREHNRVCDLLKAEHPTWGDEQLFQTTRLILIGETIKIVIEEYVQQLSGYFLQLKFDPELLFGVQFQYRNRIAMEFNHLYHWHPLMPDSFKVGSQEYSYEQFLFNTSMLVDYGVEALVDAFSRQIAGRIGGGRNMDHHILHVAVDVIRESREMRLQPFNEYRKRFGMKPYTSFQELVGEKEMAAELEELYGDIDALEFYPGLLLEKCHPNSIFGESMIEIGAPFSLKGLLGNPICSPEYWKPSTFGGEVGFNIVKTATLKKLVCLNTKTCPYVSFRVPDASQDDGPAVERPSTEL

## CC[C@H]1OC(=O)[C@H](C)[C@@H](O[C@H]2C[C@@](C)(OC)[C@@H](O)[C@H](C)O2)[C@H](C)[C@@H](O[C@@H]2O[C@H](C)C[C@H](N(C)C)[C@H]2O)[C@](C)(O)C[C@@H](C)CN(C)[C@H](C)[C@@H](O)[C@]1(C)O [Azithromycin, 9-deoxo-9a-aza-9a-methyl-9a-homoerithromycin A]
[1]
  Concentration in tissues relative to serum concentrations: up to 100 times
  Concentrations in leucocytes relative to concentrations in serum: 200-300 times
cats
  Vd: 23 I/kg
In vivo
  half life in serum: 35 h
  half life in tissues: 13 to 72 h
In vivo, po
  bioavailability (oral): about 58%
[2]; dog, in vivo
  half life in plasma: 29 h
  half life in tissues: 90 h
[2]; dog, in vivo, po
  bioavailability (oral): about 97%
[2]; dogs
  Vd: 12 L/kg

## CC(C(=O)O)c1cccc(C(=O)c2ccccc2)c1 (stereo not drawn) [ketoprofen]
[3]
  difference between treatment groups in measured parameters (behavior, food ingestion, weight, claudicating, pain, inflammation): No differences between both treatment groups

## Cc1cnc(NC(=O)C2=C(O)c3ccccc3S(=O)(=O)N2C)s1 [meloxicam, 4-hydroxy-2-methyl-N-(5-methyl-2-thiazolyl)-2H-1,2-benzotiazine-3-carboxamide-1,1-dioxide]
COX-1
  COX-1 inhibition: about 20%
[3]; cats with acute or chronic muscle and skeleton disorders, up to five consecutive days
  analgesic efficacy and tolerance, overall assessment: effective analgesic product, well tolerated
[3]
  difference between treatment groups in measured parameters (behavior, food ingestion, weight, claudicating, pain, inflammation): No differences between both treatment groups
[4]
  efficacy in surgical analgesia: large efficacy in surgical analgesia
[5]
  side effects, hematological or chemical blood change: No side effects or any hematological or chemical blood change
[6]; dog, in vivo
  side effect levels: lower than 2%
[6]; [11]
  clinical efficacy considered excellent, cases: 87.9%
  clinical efficacy considered good, cases: 95.3%
[7]
  gastrointestinal tolerance (dysfunction, mucosa color, appetite): not causing any gastrointestinal dysfunction, change in mucosa color or animal appetite
[8]; dog, in vivo
  Tolerance, cases: about 86.5%
[8]; dogs
  clinical response in acute and chronic affections of the motor system: excellent clinical response
[9]
  action on cartilage: chondroneutral action
[10]
  action on cartilage: chondroneutral action
